From ChEMBL document CHEMBL5137025, “Tuberculosis Drug Discovery: Challenges and New Horizons” (J Med Chem, 2022)
Converted amounts (≈) assume the structure as drawn.

System: Mycobacterium tuberculosis variant bovis
Test: Antibacterial activity against Mycobacterium bovis BCG assessed as inhibition of bacterial growth incubated for 4 to 7 days
Type: functional
Settings: time 4-7 day

Nc1nc(N)c(N=O)c(OCC2CCCCC2)n1
MIC99: 1.6 µM (≈ 0.402 µg/mL)
